“Also recorded” adds a separate entry of the source.
Target: T1, mTRPV3 (Mus musculus, UniProt Q8K424)
T1 construct: expressed in transfected cells
T1 sequence (Q8K424 1-791): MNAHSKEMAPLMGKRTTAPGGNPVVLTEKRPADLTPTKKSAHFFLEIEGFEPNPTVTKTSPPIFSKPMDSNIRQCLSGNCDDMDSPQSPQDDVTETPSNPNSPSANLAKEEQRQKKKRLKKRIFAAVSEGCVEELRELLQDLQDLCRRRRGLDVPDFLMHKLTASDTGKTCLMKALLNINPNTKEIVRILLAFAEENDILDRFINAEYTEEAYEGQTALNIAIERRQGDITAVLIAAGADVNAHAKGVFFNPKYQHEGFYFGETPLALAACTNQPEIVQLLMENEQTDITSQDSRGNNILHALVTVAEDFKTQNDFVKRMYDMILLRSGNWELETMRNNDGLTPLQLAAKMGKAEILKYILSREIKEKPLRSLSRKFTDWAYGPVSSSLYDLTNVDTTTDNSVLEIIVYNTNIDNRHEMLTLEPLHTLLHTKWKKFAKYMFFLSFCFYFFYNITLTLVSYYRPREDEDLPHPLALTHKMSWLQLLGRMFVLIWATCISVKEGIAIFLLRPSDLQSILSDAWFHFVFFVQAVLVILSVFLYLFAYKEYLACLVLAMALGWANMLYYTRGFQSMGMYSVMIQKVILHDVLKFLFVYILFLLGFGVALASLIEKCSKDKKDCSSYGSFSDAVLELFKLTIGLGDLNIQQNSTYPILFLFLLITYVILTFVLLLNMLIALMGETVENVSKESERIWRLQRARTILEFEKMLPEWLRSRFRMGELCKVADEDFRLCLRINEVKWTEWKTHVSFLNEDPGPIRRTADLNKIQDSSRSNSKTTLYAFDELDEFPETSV
Assay: Intracellular calcium fluorescence (Fluo-4, FLIPR) in HEK-293 cells stably transfecting mTRPV3, 2-APB induced
Assay type: cell-based
Conditions: Scutellarein 10 μM, 2-APB 300 μM, mTRPV3-HEK-293
Experimental: mTRPV3 plasmids were donated by Professor Jie Zheng from UC Davis. Transfection steps were as follows: HEK-293 cells with a confluence ranging from 70% to 80% and a good growth state were seeded into T-60 small dishes the day before transfection, each small dish contained 4×10^5 cells, and the cells were cultured without penicillin/streptomycin overnight at 37° C. in 5% CO2. 10 μL of plasmids (plasmid concentration was 1000 ng/μL) were diluted with 250 μl of DMEM (article number: 12800017, Gibco), and meanwhile, 10 μL of Lipofectamine 2000 (article number: 11668027, Gibco) was diluted into 250 μL of DMEM. […] Monoclone cells were selected by a limiting dilution method: the screened cells were digested and counted, and seeded into a 96-well plate in sequence at densities of 10^4 cells/well, 10^3 cells/well, 10^2 cells/well, 10 cells/well, and 1 cell/well. Under a fluorescence microscope, wells of separate cells with green fluorescence were labeled, and cells amplified from the wells were HEK-293 cells stably transfecting the mTRPV3. […] The cell plate was placed in a preheated FLIPR® ^TETRA (Molecular Devices, Sunnyvale, Calif., USA) at 30° C., and excited at a wavelength of 488 nm, and fluorescence signals were continuously recorded at a sampling frequency of 1 second at a wavelength range of 515 nm to 575 nm. […]

Q: `O=c1cc(-c2ccc(O)cc2)oc2cc(O)c(O)c(O)c12` [Scutellarein] was tested. Which “inhibition of increase of intracellular calcium concentration (calcium influx) induced by 2-APB” value did it give?
A: could inhibit increase of the intracellular calcium concentration; also recorded: obvious inhibitory effect
